The target of one assay is T1, rat A1 receptors (Rattus norvegicus, UniProt P25099).
T1 construct: to A1 receptors from rat cerebral cortical membranes; from tissue; host or cells: rat cerebral cortical membranes
T1 sequence (P25099 1-326): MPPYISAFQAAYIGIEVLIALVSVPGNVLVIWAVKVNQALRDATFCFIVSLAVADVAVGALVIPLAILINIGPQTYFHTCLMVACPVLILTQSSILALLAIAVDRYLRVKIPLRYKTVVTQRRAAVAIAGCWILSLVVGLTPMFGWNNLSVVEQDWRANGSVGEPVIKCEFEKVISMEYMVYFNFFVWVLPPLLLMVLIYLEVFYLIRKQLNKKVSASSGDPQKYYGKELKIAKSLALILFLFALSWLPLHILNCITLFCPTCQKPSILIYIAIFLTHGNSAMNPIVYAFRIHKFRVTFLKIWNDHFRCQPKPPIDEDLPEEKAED
Kind of assay: Displacement of [3H]R-PIA binding to A1 receptors in rat brain membranes. The conditions noted are these: read-out: Ki rA1. How it is done:
(§1) All nonradioactive compounds were initially dissolved in DMSO and diluted with buffer to the final concentration, where the amount of DMSO never exceeded 2%. Incubations were terminated by rapid filtration over Whatman GF/B filters using a Brandell cell harvester. The tubes were rinsed three times with 3 mL buffer each.
(§2) At least six different concentrations of competitor, spanning 3 orders of magnitude adjusted appropriately for the IC50 value of each compound, were used. IC50 values, calculated with the nonlinear regression method implemented in Graph-Pad Prism (San Diego, CA) were converted to apparent Ki values as described by [Linden [1982]]. Hill coefficients of the tested compounds were in the range of 0.8–1.1.
(§3) At A2B receptors, two radioligand binding assays (Table 1) were used. Ki values of xanthine derivatives were determined in displacement of binding of the non-selective radioligands […], 8 (4-(2-[7-amino-2-{furyl}{1,2,4}triazolo{2,3-a}{1,3,5}tr nzyl)-8-phenyloxyacetate-1-propyl-xanthine), at human A2B receptors expressed in HEK-293 cell membranes [[Linden and Jacobson, 1998]]. In order to evaluate selectivity, selected derivatives were subjected to standard binding assays at A1, A2A, and A3 receptors. The initial screening utilized rat brain A1/A2A receptors (with radioligands [^3H]R-PIA and [^3H]CGS-21680), and selected compounds were examined at the recombinant human subtypes (Table 1), using [^3H]CPX ([^3H]8-cyclopentyl-1,3-dipropylxanthine) and ^125I-ZM 241385, ^125I-4-(2-[7-amino-2-[2-furyl][1,2,4]triazolo[2,3-a][1,3,5]triazin-5-yl-amino]ethyl)phenol) [[Palmer et al., 1996]].
Background: Loss of bound radioactivity is the signal in a displacement assay; it reports binding, not function.

For a further assay, the target named is T2, human A2B receptors (Homo sapiens, UniProt P29275).
T2 construct: expressed in transfected cells; host or cells: HEK-293
T2 sequence (P29275 1-332): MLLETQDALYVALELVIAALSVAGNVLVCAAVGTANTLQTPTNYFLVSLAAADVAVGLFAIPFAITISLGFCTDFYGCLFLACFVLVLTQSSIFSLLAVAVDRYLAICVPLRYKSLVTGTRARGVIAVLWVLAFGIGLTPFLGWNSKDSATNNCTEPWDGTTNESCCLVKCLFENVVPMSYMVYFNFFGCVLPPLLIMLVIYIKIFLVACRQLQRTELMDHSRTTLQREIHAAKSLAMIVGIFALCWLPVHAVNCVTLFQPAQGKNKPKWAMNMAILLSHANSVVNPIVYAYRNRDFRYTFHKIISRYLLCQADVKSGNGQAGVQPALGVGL
Kind of assay: Binding at human A2B receptors expressed in HEK-293 cells vs [3H]ZM241385. The conditions noted are these: for rA1/hA2B: ratio of Ki rat A1 to Ki human A2B. How it is done:
The plasmid was amplified in competent JM109 cells and plasmid DNA isolated using Wizard Megaprep columns (Promega Corp., Madison, WI).
Colonies were selected by growth of cells in 0.6 mg/mL G418. Transfected cells were maintained in DMEM supplemented with Hams F12 nutrient mixture (1/1), 10% newborn calf serum, 2 mM glutamine, and containing 50 IU/mL penicillin, 50 μg/mL streptomycin, and 0.2 mg/mL Geneticin (G418, Boehringer Mannheim, Indianapolis, IN).
Confluent monolayers of HEK-A2B cells were washed with PBS followed by ice-cold Buffer A (10 mM HEPES, 10 mM EDTA, pH 7.4) with protease inhibitors ([…] benzamidine, […], and […] of each aprotinin, pepstatin, and leupeptin). The cells were homogenized in a Polytron (Brinkmann) for 20 sec, centrifuged at 30,000g, and the pellets washed twice with buffer HE (10 mM HEPES, 1 mM EDTA, pH 7.4 with protease inhibitors). The final pellet was resuspended in buffer HE, supplemented with 10% sucrose and frozen in aliquots at −80°C. For binding assays, membranes were thawed and diluted 5–10-fold with HE to a final protein concentration of approximately 1 mg/mL. […] After incubating for 20 min at room temperature, 50 mL of 10 mg/mL Na-metabisulfite in water was added the quench the reaction. The reaction products were applied to a C18 HPLC column using 4 mM phosphate, pH 6.0/methanol. […] The incubation time was 3 h at 21°C. […] Membranes were filtered on Whatman GF/C filters using a Brandell cell harvester (Gaithersburg, MD) and washed three times over 15–20 sec with ice-cold buffer (10 mM Tris, 1 mM MgCl2, pH 7.4). […] Data from replicate experiments are tabulated as means ± SEM.
At A2B receptors, two radioligand binding assays (Table 1) were used. […] In order to evaluate selectivity, selected derivatives were subjected to standard binding assays at A1, A2A, and A3 receptors.

For a further assay, the target named is T3, human A3 receptors (Homo sapiens, UniProt P0DMS8).
T3 construct: expressed in transfected cells; host or cells: HEK-293
T3 sequence (P0DMS8 1-318): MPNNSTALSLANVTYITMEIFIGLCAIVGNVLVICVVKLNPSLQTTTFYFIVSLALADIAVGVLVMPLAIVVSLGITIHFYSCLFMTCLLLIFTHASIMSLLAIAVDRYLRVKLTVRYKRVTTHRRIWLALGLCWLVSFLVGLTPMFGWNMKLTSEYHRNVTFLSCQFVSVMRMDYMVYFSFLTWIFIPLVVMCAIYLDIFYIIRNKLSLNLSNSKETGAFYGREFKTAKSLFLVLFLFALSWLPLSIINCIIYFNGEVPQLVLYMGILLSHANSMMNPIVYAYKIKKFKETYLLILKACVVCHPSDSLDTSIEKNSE
The assay can be described thus: Binding at recombinant human A3 receptors expressed in HEK-293 cells vs [125I]ABA. The conditions noted are these: recombinant human A3 in HEK-293 cells, read-out: Ki hA3. How it is done:
as §1, §2, §3

Setting [1] is: HEK-293 cells, vs [3H]ZM241385, read-out: Ki hA2B.

Structures are written as SMILES. Like-named read-outs stand apart in the source and are kept apart here.

Take `CCCn1c(=O)c2[nH]c(-c3ccc(OCC(=O)NNC(C)=O)cc3)nc2n(CCC)c1=O` [Compound 4e, 8-[4-[(Carboxymethyl)oxy]phenyl]-1,3-di-(n-propyl)xanthine N-Acetylhydrazide]: the inhibition constant (Ki) came out at 6.51 ± 1.24 nM at rat A1 receptors, 65.4 ± 6.5 nM at human A2B receptors (setting [1]) and 30.9 ± 8.2 nM at human A3 receptors. For the same molecule, the rA1/hA2B on human A2B receptors was determined as 0.10.
Turning to `CCCn1c(=O)c2[nH]c(-c3ccc(OCC(=O)NN4C(=O)c5ccccc5C4=O)cc3)nc2n(CCC)c1=O` [Compound 21, 8-[4-[(Carboxymethyl)oxy]phenyl]-1,3-di-(n-propyl)xanthine N,N-Phthaloylhydrazide], the Ki worked out at 26.3 ± 2.3 nM at rat A1 receptors, 64.4 ± 0.8 nM on human A2B receptors (setting [1]) and 147 ± 21 nM at human A3 receptors. Besides, the rA1/hA2B on human A2B receptors is 0.41.
Consider `CCCn1c(=O)[nH]c(=O)c2[nH]c(-c3ccc(OCC(=O)NN4C(=O)C(C)=C(C)C4=O)cc3)nc21` [Compound 15, 8-[4-[(Carboxymethyl)oxy]phenyl]-1H-3-(n-propyl)xanthine N,N-[(1,2-Dimethyl)maleyl]hydrazide], for which the figures for the Ki at rat A1 receptors, at human A2B receptors (setting [1]) and at human A3 receptors were 3590 nM, 1800 nM and 14200 nM, respectively. For the same molecule, the rA1/hA2B at human A2B receptors came out at 2.0.
Consider `CCCn1c(=O)c2[nH]c(-c3ccc(OCC(=O)NNC(=O)CCC(=O)O)cc3)nc2n(CCC)c1=O` [Compound 9, 8-[4-[(Carboxymethyl)oxy]phenyl]-1,3-di-(n-propyl)xanthine N-[(3-Carboxy)-n-propionyl]hydrazide], for which the Ki is 73.3 ± 22 nM at rat A1 receptors, 116 ± 10 nM at human A2B receptors (setting [1]) and 173 ± 27 nM on human A3 receptors.
Turning to `CCCn1c(=O)c2[nH]c(-c3ccc(OCC(=O)NN4C(=O)C(C)=C(C)C4=O)cc3)nc2n(CCC)c1=O` [Compound 14, 8-[4-[(Carboxymethyl)oxy]phenyl]-1,3-di-(n-propyl)xanthine N,N-[(1,2-Dimethyl)maleyl]hydrazide], the Ki on rat A1 receptors is 11.1 ± 2.4 nM; at human A2B receptors (setting [1]), 19.4 ± 6.2 nM; at human A2B receptors (rounded values given in text, read-out: Ki at human A2B receptors), 19 nM; on human A3 receptors it was 670 ± 154 nM. Besides, the “selectivity for human A2B vs. human A1 receptors” value on human A2B receptors (human A2B vs human A1) was determined as 160 fold. Besides, the “selectivity for human A2B vs. human A2A receptors” value at human A2B receptors (human A2B vs human A2A) worked out at 100 fold. Also, the “selectivity for human A2B vs. human A3 receptors” value at human A2B receptors (human A2B vs human A3) is recorded as 35 fold. Besides, at human A2B receptors, the rA1/hA2B turned out to be 0.57.
Turning to `CCCn1c(=O)c2[nH]c(-c3ccc(OCC(=O)OCC)cc3)nc2n(CCC)c1=O` [Compound 4b], the Ki worked out at 18.7 ± 0.5 nM on human A2B receptors (setting [1]) and 48.5 ± 0.8 nM at human A3 receptors. For the same molecule, at human A2B receptors, the rA1/hA2B stood at 2.8.

What is called Ki is the equilibrium dissociation constant of an inhibitor or competing ligand from its target.

The values above are taken from PMC9196953 (Drug development research, 1999).
